# From PubChem BioAssay AID1645864 (Buhrlage Lab, Dana-Farber Cancer Institute and Novartis …, 2021)
# Activity calls are given as the source filed them.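 Rule for the calls: active = maximal inhibition of USP17 at or above 30% in the confirmation dose-response, a value not among the printed readouts; inactive = the rest.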
# Target: Ubiquitin carboxyl-terminal hydrolase 17-like protein 5 (Homo sapiens) (UniProt A8MUK1)
# Assay: ubiquitin-specific protease 17 inhibitors, concentration series, biochemical, verification of primary actives (AID 1645864)
# Settings: purified USP17, ubiquitin-rhodamine cleavage fluorescence, 3 h
# Chain of Ubiquitin carboxyl-terminal hydrolase 17-like protein 5 (Homo sapiens) (A8MUK1 whole entry, looked up): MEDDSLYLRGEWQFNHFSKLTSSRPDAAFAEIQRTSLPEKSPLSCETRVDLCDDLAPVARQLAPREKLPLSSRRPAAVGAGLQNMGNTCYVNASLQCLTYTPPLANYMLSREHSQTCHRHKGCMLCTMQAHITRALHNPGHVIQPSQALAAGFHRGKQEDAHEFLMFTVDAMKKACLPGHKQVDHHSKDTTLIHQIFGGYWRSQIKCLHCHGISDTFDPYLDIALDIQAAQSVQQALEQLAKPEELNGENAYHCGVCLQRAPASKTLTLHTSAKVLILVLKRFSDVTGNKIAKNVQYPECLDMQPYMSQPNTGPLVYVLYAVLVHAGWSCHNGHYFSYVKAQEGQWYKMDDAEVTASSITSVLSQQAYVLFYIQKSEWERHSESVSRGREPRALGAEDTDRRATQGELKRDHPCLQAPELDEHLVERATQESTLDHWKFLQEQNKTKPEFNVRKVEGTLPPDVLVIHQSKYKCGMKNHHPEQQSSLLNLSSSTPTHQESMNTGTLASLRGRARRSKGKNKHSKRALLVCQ
row,Compound,IC50
1,Cc1ccc(-c2ccc(N3CCOCC3)nn2)cc1S(=O)(=O)N1CCOCC1,> 50 µM (inactive)
2,O=C(NCCN1CCCC1)C1CCN(c2cnc(N3CCCCC3)nc2)CC1,> 50 µM (inactive)
3,FC(F)(F)c1ccccc1CCN1CCc2nc3ccc(Cl)cc3cc2C1,> 50 µM (inactive)
4,Cc1ccccc1C(=O)NCCn1cc(SCC(=O)Nc2ccc3c(c2)OCCO3)c2ccccc21,> 50 µM (inactive)
5,CC(C)(C)c1ccc(C(=O)Nc2ccc(Oc3cccnc3)nc2)cc1,> 50 µM (inactive)
6,CCc1ccc(C(C)NC(=O)C2CCN(c3ccc4nncn4n3)CC2)cc1 (stereo not given),> 50 µM (inactive)
7,CS(=O)(=O)N1CCCN(c2nc3cc(Cl)ccc3n3cccc23)CC1,> 50 µM (inactive)
8,CCOc1ccc2c(c1)c(=O)c(C(=O)c1ccccc1)cn2CC(=O)Nc1ccc2c(c1)OCCO2,20.4 µM
9,CCc1nc(N2CCCC2=O)sc1C(=O)Nc1cccc(C(C)=O)c1,> 50 µM (inactive)
10,c1ccc(-n2nnc(-c3noc(-c4ccccn4)n3)c2-c2ccncc2)cc1,46.6 µM
11,COc1ccc(C(=O)Nc2nc3n(n2)C(c2ccccc2)CC(=O)N3)cc1 (stereo not given),10.2 µM
12,COc1ccc(-c2cc(C(C)=O)c(C)n2CCC(=O)Nc2ccc(OC)cc2OC)cc1,40.7 µM
13,Cc1nc2cc(NC(=O)C3CN(C(=O)c4cnccn4)C3)ccc2s1,> 50 µM (inactive)
14,O=c1oc2ccccc2c2nn(-c3ccccn3)cc12,47.9 µM
15,CC(C)c1ccc(C(C(=O)NC2CCCCC2)N(C(=O)c2cnccn2)c2cccc(F)c2)cc1 (stereo not given),27.2 µM
16,Cc1cc(-c2nnc(SCC(=O)Nc3ccc(Br)c(C)c3)n2N)n[nH]1,18.7 µM
17,CC(C)OC(=O)c1cc2c(ccn2C)n1CC(=O)N1CCN(C(=O)c2ccco2)CC1,> 50 µM (inactive)
18,Cc1ccc(C)c(-c2cc3c(=O)n(Cc4noc(CN5CCCCC5)n4)ccn3n2)c1,> 50 µM (inactive)
19,Cc1ccccc1C(=O)Nc1ccc(Cc2ccc(NC(=O)c3ccccc3C)c(O)c2)cc1O,> 50 µM (inactive)
20,O=C(Cc1nnc2c(-c3nc(C4CC4)no3)cccn12)Nc1ccccc1,20.1 µM
21,CCOC(=O)c1ccc(NC(=O)Cn2c(=O)n(CC(=O)NCc3ccco3)c(=O)c3ccccc32)cc1,2.89 µM
22,O=C(CSc1cn(Cc2ccccc2)c2ccccc12)Nc1ccc2c(c1)OCCO2,> 50 µM (inactive)
23,Cc1cccc(NC(=O)Nc2nnc(CC(=O)NCc3ccccc3)s2)c1,10.7 µM
24,O=C(C1CCCN(S(=O)(=O)N2CCCCCC2)C1)N1CCN(c2ccccc2)CC1 (stereo not given),> 50 µM (inactive)
25,O=C(CN1C(=O)c2ccccc2Sc2ccc(C(=O)N3CCCC3)cc21)Nc1ccccc1Cl,34.1 µM

row,Compound,IC50
1,COc1ccc(OC)c(NC(=O)Cn2c(=O)n(CC3CCC(C(=O)NCCc4ccccc4)CC3)c(=O)c3ccccc32)c1 (stereo not given),0.262 µM
2,O=C(Cn1c(=O)n(Cc2ccc(F)cc2)c(=O)c2ncccc21)Nc1ccccc1,45.2 µM
3,COc1cc(-c2ccno2)ccc1S(=O)(=O)Nc1ccccc1Cl,> 50 µM (inactive)
4,CCC(C)Oc1cccc(C(=O)Nc2ccc(CN3CCOCC3)cc2)c1 (stereo not given),> 50 µM (inactive)
5,COc1ccc(C2CC(=O)Nc3n[nH]c(-c4ccccc4)c32)cc1OC (stereo not given),29.7 µM
6,Cc1cccc(N2C(=O)/C(=C\c3ccc4c(c3)OCCO4)c3ccccc3C2=O)c1,23.6 µM
7,COc1ccc(CCNC(=O)CSc2cn(CCNC(=O)c3ccc(F)cc3)c3ccccc23)cc1OC,31.3 µM
8,Nc1ccc(F)c(NS(=O)(=O)c2ccccc2)c1,> 50 µM (inactive)
9,O=C(COc1ccc(F)cc1)Nc1cc(F)c2nc(N3CCOCC3)ccc2c1,4.34 µM
10,Cc1cc(O)cc2cc3c(c(O)c12)C(=O)CCC3O (stereo not given),> 50 µM (inactive)
11,CCOC(=O)c1cc2c(ccn2C)n1CC(=O)N1CCC(C)CC1,> 50 µM (inactive)
12,COc1cccc2cccc(O)c12,> 50 µM (inactive)
13,CN(Cc1ccccc1)S(=O)(=O)c1ccc2[nH]cc(C(=O)NCc3cccs3)c(=O)c2c1,0.749 µM
14,CCCCCCCc1cc(O)cc(O)c1,> 50 µM (inactive)
15,O=C(CCc1nnc2n(Cc3ccccc3)c(=O)c3ccccc3n12)N1CCN(c2ccccn2)CC1,11.3 µM
16,Cc1ccc(Cn2cc(-c3noc(-c4ccc[nH]4)n3)nn2)cc1,21.2 µM
17,O=C(Cn1cncc(-c2nc(-c3ccccc3)cs2)c1=O)NC1CCCC1,39.5 µM
18,O=C(Nc1ccc(F)cc1F)c1csc(-c2ccccc2)n1,39.2 µM
19,COc1ccccc1CNC(=O)CCCCn1c(=O)c2ccccc2n(Cc2ccccc2C#N)c1=O,13.1 µM
20,O=C(CCCn1c(=O)[nH]c2cc(Cl)ccc2c1=O)N1CCc2ccccc2C1,21.5 µM
21,Cc1sc2ncnc(OCc3ccc(F)cc3Cl)c2c1C,> 50 µM (inactive)
22,O=C(Nc1cc(Cl)ccc1-n1cncn1)c1ccc(S(=O)(=O)N2CCCC2)cc1,> 50 µM (inactive)
23,COc1ccc(/C=C/C(=O)Nc2c3c(nc4c2CCC4)CCCC3)cc1,15 µM
24,Cc1c(C)n(-c2ccccc2)c2ncn(CC(=O)NC(C)c3ccccc3)c(=O)c12 (stereo not given),22.5 µM
25,N#Cc1cc2c(nc1SCC(=O)NCc1ccccc1)CCCC2,> 50 µM (inactive)

row,Compound,IC50
1,COc1ccccc1C(=O)N1CCc2[nH]c3ccc(F)cc3c2C1,> 50 µM (inactive)
2,CC1Oc2ccccc2C(=O)N(Cc2ccc([N+](=O)[O-])cc2)C1=O (stereo not given),> 50 µM (inactive)
3,O=C(COC(=O)CCc1ccc(S(=O)(=O)N2CCOCC2)cc1)Nc1ccc2c(c1)OCCO2,> 50 µM (inactive)
4,O=C(CSc1nnc2n1CCCCC2)Nc1ccc2[nH]c(=O)[nH]c2c1,12 µM
5,CCOC(=O)c1ccc(S(=O)(=O)N2CCC(C(=O)OC(C)C(=O)Nc3cccc([N+](=O)[O-])c3)CC2)cc1 (stereo not given),7.35 µM
6,COc1ccc(-c2ccnc(-c3ccc(OCc4cccc(F)c4)cc3)n2)cc1,37.2 µM
7,Cc1c(Cl)cccc1NC(=O)Cn1ccc2ccccc2c1=O,2.23 µM
8,COc1ccc(NC(=O)Cn2c(CSc3ccc(C)cc3)nc3ccccc32)cc1,36 µM
9,COc1ccc(S(=O)(=O)Nc2ccc(Nc3ccc(-n4cccn4)nn3)cc2)cc1,44.9 µM
10,COc1cccc(NC(=O)c2ccc(-c3csc(C)n3)cc2)c1,> 50 µM (inactive)
11,CC(C)Oc1ccc(C(=O)Nc2cccc(S(=O)(=O)N3CCCC3)c2)cc1,> 50 µM (inactive)
12,CCn1c(=O)c2ccccc2n(Cc2nc(-c3ccccc3OC)no2)c1=O,> 50 µM (inactive)
13,Cc1cc(-c2ccnc3c(C#N)cnn23)c(C)s1,28.6 µM
14,CCC(=O)Nc1ccccc1-c1nc2ccccc2n(CC(=O)Nc2cc(OC)ccc2OC)c1=O,18.6 µM
15,O=C(NCc1ccccc1)Nc1cccc2ccccc12,34 µM
16,CC(=O)N1CCc2cc(S(=O)(=O)NCc3ccc(C)cc3)ccc21,> 50 µM (inactive)
17,Cc1ccc2c(=O)c3c([nH]c2c1C)CCN(CC(=O)NCc1ccccc1)C3,> 50 µM (inactive)
18,Cn1nc(-c2nc(-c3ccccc3)no2)c2c1CCN(C(=O)C1CC1)C2,> 50 µM (inactive)
19,COc1ccc(CC(=O)Nc2cccc(-c3nc4ncccc4o3)c2)cc1OC,> 50 µM (inactive)
20,Cc1ccc2[nH]c(=O)c(-c3nc4ccc(C)cn4c3NCc3ccc(F)cc3)cc2c1,1.98 µM
21,CCCNC(=O)c1ccn(-c2ccc3ccc(-c4cnn(C)c4)cn23)n1,> 50 µM (inactive)
22,COc1ccc(CCN2COc3c(cc(Cl)c4cccnc34)C2)cc1OC,24.8 µM
23,COc1cccc(-c2nc(C(N)=O)c3[nH]c(=O)n(-c4cccc(Cl)c4)c3n2)c1OC,> 50 µM (inactive)
24,COc1ccc(C(C(=O)NCc2ccccc2)N(C(=O)CCN2CCc3ccccc32)c2ccc(C)c(C)c2)cc1 (stereo not given),> 50 µM (inactive)
25,CCCc1nc2sc3c(NCc4ccco4)ncnc3c2c2c1CCC2,> 50 µM (inactive)

row,Compound,IC50
1,O=C(Nc1cccn(Cc2c(Cl)cccc2Cl)c1=O)c1ccccc1[N+](=O)[O-],37 µM
2,CC(C)NS(=O)(=O)c1cccc2c(NC(=O)C(Cc3ccccc3)NC(=O)c3ccccc3)cccc12 (stereo not given),> 50 µM (inactive)
3,COc1cccc(NC(=O)CCc2c(C)nn(-c3cc(N4CCCCC4)ncn3)c2C)c1,> 50 µM (inactive)
4,CCn1c(SCc2cccc(C)c2)nnc1-c1cnccn1,> 50 µM (inactive)
5,Cc1ccc(NC(=O)c2ccc(Nc3nnc(C)c4ccccc34)cc2)cc1,38.1 µM
6,CCOc1ccccc1C(=O)Oc1ccc2c(C)cc(=O)oc2c1,26.1 µM
7,O=C(Nc1ccccc1)c1cn2c3c(cccc3c1=O)CC2,26.9 µM
8,O=C(Nc1cccc(F)c1)C1CCCN(S(=O)(=O)N2CCCCCC2)C1 (stereo not given),39.9 µM
9,NS(=O)(=O)c1cc(C(=O)OCC(=O)c2ccc3c(c2)OCCO3)ccc1Cl,> 50 µM (inactive)
10,COc1ccc(OC)c(NC(=O)CS(=O)(=O)c2cn(CC(=O)N3CCC(C)CC3)c3ccccc23)c1,27.2 µM
11,COc1ccc(CCn2cnc3c4ccccc4n(C)c3c2=O)cc1OC,> 50 µM (inactive)
12,COc1ccc(-c2cc3nc(C)cc(Nc4ccc(F)cc4)n3n2)cc1OC,> 50 µM (inactive)
13,COc1ccc(CNc2nn3c(-c4cncc(OC)c4)cnc3s2)cc1,4.02 µM
14,CC(=O)c1ccccc1NC(=O)COc1ccc(-c2ccc(C#N)cc2)cc1,2.62 µM
15,CC1CCN(Cc2nnc(-c3cn(CC(=O)NC4CCCCC4)c4ccccc34)o2)CC1,> 50 µM (inactive)
16,COC(=O)c1ccc2c(=O)n(CCCCCC(=O)NCCc3ccc(S(N)(=O)=O)cc3)c(=O)[nH]c2c1,5.08 µM
17,Cc1cc(NC(=O)c2[nH]nc3c2CCc2ccccc2-3)no1,3.28 µM
18,O=C(NCc1cccc(NC(=O)C2CC2)c1)Nc1cccc2ccccc12,39.7 µM
19,c1ccc(-c2nc(-c3nnn(-c4ccccc4)c3-c3ccncc3)no2)cc1,3.91 µM
20,Cc1cc(C)c2c(-n3cccc3)c(C(=O)NCCc3ccc(S(N)(=O)=O)cc3)sc2n1,> 50 µM (inactive)
21,O=C(Cc1c[nH]c2ccccc12)Nc1nc2ccccc2s1,> 50 µM (inactive)
22,CC(=O)c1ccc(NC(=O)C2CCN(c3cncnc3N3CCCC3)CC2)cc1,> 50 µM (inactive)
23,COc1ccc(NC(=O)c2nnn(-c3cccc(C)c3)c2C)cc1,> 50 µM (inactive)
24,CCOc1ccc(NC(=O)Cn2cc(C(=O)c3ccc(Cl)cc3)c(=O)c3cc(OC)ccc32)cc1,2.74 µM
25,O=C1CC(C(=O)Nc2ccc(F)cc2)n2nc(SCc3ccccc3)nc2N1 (stereo not given),38.3 µM
